Laboratory results: PubChem BioAssay (NCI)
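Grown in 96-well plates, cells were treated for 48 hours with each compound at five concentrations. Insufficient inhibition: endpoint recorded as highest concentration tested. TGI marks complete inhibition of growth.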

Experiments:
Assay in all cases: NCI anticancer screen, dose series, 48 h
786-0 renal = test system: 786-0 renal
A498 renal = test system: A498 renal
A549 NSCLC = test system: A549 NSCLC
ACHN renal = test system: ACHN renal
BT-549 breast = test system: BT-549 breast
CAKI-1 renal = test system: CAKI-1 renal
CCRF-CEM leukemia = test system: CCRF-CEM leukemia
COLO 205 colon = test system: COLO 205 colon
DU-145 prostate = test system: DU-145 prostate
HCC-2998 colon = test system: HCC-2998 colon
HCT-116 colon = test system: HCT-116 colon
HCT-15 colon = test system: HCT-15 colon
HL-60(TB) leukemia = test system: HL-60(TB) leukemia
HOP-62 NSCLC = test system: HOP-62 NSCLC
HOP-92 NSCLC = test system: HOP-92 NSCLC
HS 578T breast = test system: HS 578T breast
IGROV1 ovarian = test system: IGROV1 ovarian
K-562 leukemia = test system: K-562 leukemia
KM12 colon = test system: KM12 colon
LOX IMVI melanoma = test system: LOX IMVI melanoma
M14 melanoma = test system: M14 melanoma
MALME-3M melanoma = test system: MALME-3M melanoma
MCF7 breast = test system: MCF7 breast
MDA-MB-231 breast = test system: MDA-MB-231 breast
MDA-MB-435 = test system: MDA-MB-435
MDA-N = test system: MDA-N
MOLT-4 leukemia = test system: MOLT-4 leukemia
NCI-H226 lung = test system: NCI-H226 lung
NCI-H23 lung = test system: NCI-H23 lung
NCI-H460 lung = test system: NCI-H460 lung
NCI/ADR-RES ovarian = test system: NCI/ADR-RES ovarian
OVCAR-3 ovarian = test system: OVCAR-3 ovarian
OVCAR-4 ovarian = test system: OVCAR-4 ovarian
OVCAR-8 ovarian = test system: OVCAR-8 ovarian
PC-3 prostate = test system: PC-3 prostate
RPMI-8226 leukemia = test system: RPMI-8226 leukemia
SF-268 CNS = test system: SF-268 CNS
SF-295 CNS = test system: SF-295 CNS
SF-539 CNS = test system: SF-539 CNS
SK-MEL-2 melanoma = test system: SK-MEL-2 melanoma
SK-MEL-28 melanoma = test system: SK-MEL-28 melanoma
SK-OV-3 ovarian = test system: SK-OV-3 ovarian
SN12C renal = test system: SN12C renal
SNB-19 CNS = test system: SNB-19 CNS
SNB-75 CNS = test system: SNB-75 CNS
SR leukemia = test system: SR leukemia
SW-620 colon = test system: SW-620 colon
T-47D breast = test system: T-47D breast
TK-10 renal = test system: TK-10 renal
U251 CNS = test system: U251 CNS
UO-31 renal = test system: UO-31 renal
EKVX NSCLC = test system: EKVX NSCLC
HT29 colon = test system: HT29 colon
NCI-H522 lung = test system: NCI-H522 lung
OVCAR-5 ovarian = test system: OVCAR-5 ovarian
RXF 393 renal = test system: RXF 393 renal
SK-MEL-5 melanoma = test system: SK-MEL-5 melanoma
UACC-257 melanoma = test system: UACC-257 melanoma
UACC-62 melanoma = test system: UACC-62 melanoma

CC(=O)NC1C(OCc2ccccc2)OC(CO)C(O)C1OC(C)C(=O)NC(C(=O)N[C@@H](CCC(=O)NCCNCCNc1c2ccccc2nc2cccc([N+](=O)[O-])c12)C(N)=O)C(C)C (some centres undefined)
TGI (786-0 renal): 76.9 µM
TGI (A498 renal): > 100 µM
TGI (A549 NSCLC): 97 µM
TGI (ACHN renal): 73.5 µM
TGI (BT-549 breast): > 100 µM
TGI (CAKI-1 renal): > 100 µM
TGI (CCRF-CEM leukemia): > 100 µM
TGI (COLO 205 colon): 56.7 µM
TGI (DU-145 prostate): > 100 µM
TGI (HCC-2998 colon): 50.4 µM
TGI (HCT-116 colon): 56.2 µM
TGI (HCT-15 colon): > 100 µM
TGI (HL-60(TB) leukemia): > 100 µM
TGI (HOP-62 NSCLC): > 100 µM
TGI (HOP-92 NSCLC): 69.9 µM
TGI (HS 578T breast): > 100 µM
TGI (IGROV1 ovarian): > 100 µM
TGI (K-562 leukemia): 19.9 µM
TGI (KM12 colon): 98.7 µM
TGI (LOX IMVI melanoma): > 100 µM
TGI (M14 melanoma): 32.2 µM
TGI (MALME-3M melanoma): > 100 µM
TGI (MCF7 breast): 41.5 µM
TGI (MDA-MB-231 breast): > 100 µM
TGI (MDA-MB-435): 29.3 µM
TGI (MDA-N): 54.5 µM
TGI (MOLT-4 leukemia): 53.2 µM
TGI (NCI-H226 lung): > 100 µM
TGI (NCI-H23 lung): > 100 µM
TGI (NCI-H460 lung): > 100 µM
TGI (NCI/ADR-RES ovarian): > 100 µM
TGI (OVCAR-3 ovarian): > 100 µM
TGI (OVCAR-4 ovarian): > 100 µM
TGI (OVCAR-8 ovarian): > 100 µM
TGI (PC-3 prostate): > 100 µM
TGI (RPMI-8226 leukemia): 58.7 µM
TGI (SF-268 CNS): > 100 µM
TGI (SF-295 CNS): > 100 µM
TGI (SF-539 CNS): 45.6 µM
TGI (SK-MEL-2 melanoma): 46.7 µM
TGI (SK-MEL-28 melanoma): > 100 µM
TGI (SK-OV-3 ovarian): > 100 µM
TGI (SN12C renal): > 100 µM
TGI (SNB-19 CNS): > 100 µM
TGI (SNB-75 CNS): > 100 µM
TGI (SR leukemia): 5.24 µM
TGI (SW-620 colon): 58.5 µM
TGI (T-47D breast): > 100 µM
TGI (TK-10 renal): > 100 µM
TGI (U251 CNS): > 100 µM
TGI (UO-31 renal): 64.6 µM

N#CC(NC12CC3CC(CC(C3)C1)C2)c1ccc2c(c1)OCO2 (centres undefined)
TGI (786-0 renal): > 100 µM
TGI (A549 NSCLC): > 100 µM
TGI (ACHN renal): > 100 µM
TGI (BT-549 breast): > 100 µM
TGI (CAKI-1 renal): > 100 µM
TGI (CCRF-CEM leukemia): > 100 µM
TGI (COLO 205 colon): > 100 µM
TGI (DU-145 prostate): > 100 µM
TGI (EKVX NSCLC): > 100 µM
TGI (HCC-2998 colon): > 100 µM
TGI (HCT-116 colon): > 100 µM
TGI (HCT-15 colon): > 100 µM
TGI (HL-60(TB) leukemia): > 100 µM
TGI (HOP-62 NSCLC): > 100 µM
TGI (HOP-92 NSCLC): > 100 µM
TGI (HS 578T breast): > 100 µM
TGI (HT29 colon): > 100 µM
TGI (IGROV1 ovarian): > 100 µM
TGI (K-562 leukemia): > 100 µM
TGI (KM12 colon): > 100 µM
TGI (LOX IMVI melanoma): > 100 µM
TGI (M14 melanoma): > 100 µM
TGI (MALME-3M melanoma): > 100 µM
TGI (MCF7 breast): > 100 µM
TGI (MDA-MB-231 breast): > 100 µM
TGI (MDA-MB-435): > 100 µM
TGI (MDA-N): > 100 µM
TGI (MOLT-4 leukemia): > 100 µM
TGI (NCI-H226 lung): > 100 µM
TGI (NCI-H23 lung): > 100 µM
TGI (NCI-H460 lung): > 100 µM
TGI (NCI-H522 lung): > 100 µM
TGI (NCI/ADR-RES ovarian): > 100 µM
TGI (OVCAR-3 ovarian): > 100 µM
TGI (OVCAR-4 ovarian): > 100 µM
TGI (OVCAR-5 ovarian): > 100 µM
TGI (OVCAR-8 ovarian): > 100 µM
TGI (PC-3 prostate): > 100 µM
TGI (RPMI-8226 leukemia): > 100 µM
TGI (RXF 393 renal): > 100 µM
TGI (SF-268 CNS): > 100 µM
TGI (SF-295 CNS): > 100 µM
TGI (SF-539 CNS): > 100 µM
TGI (SK-MEL-2 melanoma): > 100 µM
TGI (SK-MEL-28 melanoma): > 100 µM
TGI (SK-MEL-5 melanoma): > 100 µM
TGI (SK-OV-3 ovarian): > 100 µM
TGI (SN12C renal): > 100 µM
TGI (SNB-19 CNS): > 100 µM
TGI (SNB-75 CNS): > 100 µM
TGI (SR leukemia): > 100 µM
TGI (SW-620 colon): > 100 µM
TGI (T-47D breast): > 100 µM
TGI (TK-10 renal): > 100 µM
TGI (U251 CNS): > 100 µM
TGI (UACC-257 melanoma): > 100 µM
TGI (UACC-62 melanoma): > 100 µM
TGI (UO-31 renal): > 100 µM
